Drawing on patent publication US20070185152A1, “Inhibitors of akt activity” (Smithkline Beecham Corporation, priority 2004, published 2007), this text covers IC50 for one molecule.

This assay addresses T1, AKT1 (Homo sapiens, UniProt P31749).
T1 construct: Insect cells expressing His-tagged AKT1 (aa 136-480) were lysed; His; made in house; host or cells: insect cells
Nature of the assay: AKT1 kinase inhibition assay (substrate phosphorylation, SPA). The class given is biochemical. Conditions: catalytic domain of AKT1; 10 nM activated AKT enzyme, 4 uM ATP, 8 uM peptide, 40 minutes at room temperature. The protocol: Isolation and Purification of His-tagged AKT1 (aa 136-480)
Insect cells expressing His-tagged AKT1 (aa 136-480) were lysed in 25 mM HEPES, 100 mM NaCl, 20 mM imidazole; pH 7.5 using a polytron (5 mLs lysis buffer/g cells). Cell debris was removed by centrifuging at 28,000×g for 30 minutes. The supernatant was filtered through a 4.5-micron filter then loaded onto a nickel-chelating column pre-equilibrated with lysis buffer. The column was washed with 5 column volumes (CV) of lysis buffer then with 5 CV of 20% buffer B, where buffer B is 25 mM HEPES, 100 mM NaCl, 300 mM imidazole; pH 7.5. His-tagged AKT1 (aa 136-480) was eluted with a 20-100% linear gradient of buffer B over 10 CV. […]
Compounds of the present invention are tested for AKT 1, 2, and 3 protein serine kinase inhibitory activity in substrate phosphorylation assays. […] Substrate phosphorylation is detected by the following procedure:
Assays are performed in 384well U-bottom white plates. […] The reaction is stopped by the addition of 50 ul SPA bead mix (Dulbecco's PBS without Mg^2+ and Ca^2+, 0.1% Triton X-100, 5 mM EDTA, 50 uM ATP, 2.5 mg/ml Streptavidin-coated SPA beads.) The plate is sealed, the beads are allowed to settle overnight, and then the plate is counted in a Packard Topcount Microplate Scintillation Counter (Packard Instrument Co., Meriden, Conn.). […]

T1 sequence (P31749 136-480): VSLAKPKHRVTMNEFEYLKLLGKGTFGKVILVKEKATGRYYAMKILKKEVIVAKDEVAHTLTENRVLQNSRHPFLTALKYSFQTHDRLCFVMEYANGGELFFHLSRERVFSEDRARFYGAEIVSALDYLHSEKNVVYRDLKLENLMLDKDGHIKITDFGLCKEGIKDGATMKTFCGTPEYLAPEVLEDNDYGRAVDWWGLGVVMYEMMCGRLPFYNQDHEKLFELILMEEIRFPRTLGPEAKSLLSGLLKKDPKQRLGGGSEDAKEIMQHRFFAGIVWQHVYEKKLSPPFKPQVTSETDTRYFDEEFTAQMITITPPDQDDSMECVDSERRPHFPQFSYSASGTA

In the case of `Cc1n[nH]c2ccc(-c3cc(OC[C@@H](N)Cc4ccccc4)cnc3-c3ccccc3)cc12` [Example 1, (S)-1-Benzyl-2-[5-(3-methyl-1H-indazol-5-yl)-6-phenyl-pyridin-3-yloxy]-ethylamine], inhibition was half-maximal at 182 nM (IC50).
